In the NIST ThermoML archive (doi:10.1016/j.fluid.2010.10.003):

Key:
[1] = refractive index (Na D-line) (dimensionless); conditions: 298.15 K; 101.33 kPa; Liquid; Standard Abbe refractometry
[2] = 298.15 K, 101.33 kPa, Liquid; for viscosity: Capillary tube (Ostwald / Ubbelohde) method; for mass density: Vibrating tube method
[3] = refractive index (Na D-line) (dimensionless); xn = mol fraction of the nth substance listed; conditions: 298.15 K, 101 kPa, Liquid, Standard Abbe refractometry
[4] = xn = mol fraction of the nth substance listed; conditions: 298.15 K, 101 kPa, Liquid; for viscosity: Capillary tube (Ostwald / Ubbelohde) method; for mass density: Vibrating tube method

CCCC[n+]1ccn(C)c1.O=S(=O)([N-]S(=O)(=O)C(F)(F)F)C(F)(F)F
Conditions | mass density [kg/m3] | refractive index | viscosity [mPa·s]
[1] | – | 1.42692 | –
[2] | 1436.58 | – | 50.68

CCCC[n+]1ccn(C)c1.O=S(=O)([N-]S(=O)(=O)C(F)(F)F)C(F)(F)F + CC(C)O
Conditions | mass density, [4] [kg/m3] | refractive index, [3] | viscosity, [4] [mPa·s]
x2 = 0.0515 | 1427.23 | 1.42621 | 45.44
x2 = 0.0962 | 1418.52 | 1.42549 | 41.2
x2 = 0.1921 | 1397.79 | 1.42385 | 33.45
x2 = 0.3213 | 1363.98 | 1.42124 | 24.5
x2 = 0.3896 | 1342.5 | 1.41962 | 20.46
x2 = 0.4869 | 1306.05 | 1.41685 | 15.84
x2 = 0.5173 | 1292.91 | 1.41578 | 14.67
x2 = 0.6074 | 1247.91 | 1.4124 | 11.22
x2 = 0.6943 | 1192.86 | 1.40818 | 8.545
x2 = 0.7996 | 1102.82 | 1.40129 | 5.859
x2 = 0.8995 | 978.52 | 1.39152 | 3.898

CC(=O)OC(C)C [1-methylethyl ethanoate] + CCCC[n+]1ccn(C)c1.O=S(=O)([N-]S(=O)(=O)C(F)(F)F)C(F)(F)F
Conditions | mass density, [4] [kg/m3] | refractive index, [3] | viscosity, [4] [mPa·s]
x1 = 0.0514 | 1425.08 | 1.42609 | 44.31
x1 = 0.1096 | 1411.17 | 1.42501 | 38.56
x1 = 0.1554 | 1399.42 | 1.42412 | 33.87
x1 = 0.1972 | 1388.1 | 1.42326 | 30.34
x1 = 0.2961 | 1358.2 | 1.42092 | 22.58
x1 = 0.4241 | 1312.34 | 1.41733 | 14.46
x1 = 0.5168 | 1272.49 | 1.4142 | 10.07
x1 = 0.5998 | 1230.54 | 1.4107 | 6.918
x1 = 0.7017 | 1168.62 | 1.40538 | 4.356
x1 = 0.7981 | 1095.44 | 1.39882 | 2.363
x1 = 0.8918 | 1005.35 | 1.39016 | 1.41

CC(=O)OC(C)C [1-methylethyl ethanoate]
Conditions | mass density [kg/m3] | refractive index | viscosity [mPa·s]
[1] | – | 1.3748 | –
[2] | 866.21 | – | 0.481

CC(C)O [propan-2-ol]
Conditions | mass density [kg/m3] | refractive index | viscosity [mPa·s]
[1] | – | 1.37502 | –
[2] | 780.88 | – | 2.073
